Data as given in the NIST ThermoML archive (doi:10.1016/j.jct.2016.12.015).
Numbers after ± are expanded uncertainties.

Conditions: 101.33 kPa, Crystal, Small (less than 1 g) adiabatic calorimetry

Structure (SMILES): C[C@H]1C[C@@H]2[C@H]([C@@H](O)C[C@@]3(C)[C@H]2CC[C@]3(O)C(=O)CO)[C@@]2(C)C=CC(=O)C=C12 [Methylprednisolone]
- molar entropy (5 K): 0.328 ± 0.035 J/K/mol
- molar entropy (10 K): 2.37 ± 0.15 J/K/mol
- molar entropy (15 K): 6.133 ± 0.39 J/K/mol
- molar entropy (20 K): 11.27 ± 0.7 J/K/mol
- molar entropy (25 K): 17.53 ± 0.34 J/K/mol
- molar entropy (30 K): 24.43 ± 0.44 J/K/mol
- molar entropy (35 K): 31.67 ± 0.55 J/K/mol
- molar entropy (40 K): 39.13 ± 0.67 J/K/mol
- molar entropy (45 K): 46.76 ± 0.45 J/K/mol
- molar entropy (50 K): 54.53 ± 0.51 J/K/mol
- molar entropy (60 K): 70.39 ± 0.64 J/K/mol
- molar entropy (70 K): 86.6 ± 0.77 J/K/mol
- molar entropy (80 K): 103 ± 0.9 J/K/mol
- molar entropy (90 K): 119.5 ± 1 J/K/mol
- molar entropy (100 K): 136.1 ± 1.1 J/K/mol
- molar entropy (110 K): 152.7 ± 1.3 J/K/mol
- molar entropy (120 K): 169.2 ± 1.4 J/K/mol
- molar entropy (130 K): 185.7 ± 1.5 J/K/mol
- molar entropy (140 K): 202.1 ± 1.6 J/K/mol
- molar entropy (150 K): 218.5 ± 1.7 J/K/mol
- molar entropy (160 K): 234.8 ± 1.9 J/K/mol
- molar entropy (170 K): 251 ± 2 J/K/mol
- molar entropy (180 K): 267.2 ± 2.1 J/K/mol
- molar entropy (190 K): 283.3 ± 2.2 J/K/mol
- molar entropy (200 K): 299.3 ± 2.3 J/K/mol
- molar entropy (210 K): 315.3 ± 2.4 J/K/mol
- molar entropy (220 K): 331.3 ± 2.6 J/K/mol
- molar entropy (230 K): 347.2 ± 2.7 J/K/mol
- molar entropy (240 K): 363.1 ± 2.8 J/K/mol
- molar entropy (250 K): 379 ± 2.9 J/K/mol
- molar entropy (260 K): 394.8 ± 3 J/K/mol
- molar entropy (270 K): 410.6 ± 3.1 J/K/mol
- molar entropy (280 K): 426.4 ± 3.3 J/K/mol
- molar entropy (290 K): 442.3 ± 3.4 J/K/mol
- molar entropy (298.15 K): 455.2 ± 3.5 J/K/mol
- molar entropy (300 K): 458.1 ± 3.5 J/K/mol
- molar entropy (310 K): 473.9 ± 3.6 J/K/mol
- molar entropy (320 K): 489.8 ± 3.7 J/K/mol
- molar entropy (330 K): 505.6 ± 3.8 J/K/mol
- molar entropy (340 K): 521.4 ± 4 J/K/mol
- molar entropy (350 K): 537.3 ± 4.1 J/K/mol
